Reference: US7790738B2, “Methods of treating and preventing AIDS using of COX-2 inhibitors” (Lauras AS, priority 2000, dated 2010)
Several values for one entry are separate records, joined by “and”; a condition that tells them apart may be missing. Identical values can stand only once. Like-named read-outs stand apart in the source and are kept apart here. Marks after values point to notes of the source that are not given here.

How the values were obtained:
[1] = target: T1, COX-2 (Homo sapiens, UniProt P35354); conditions: cited from earlier work; for COX-2 selectivity COX-1/COX-2: ratio of IC50, recombinant human enzymes; for IC50: read-out: COX-2 IC50
T1 sequence (P35354 18-604): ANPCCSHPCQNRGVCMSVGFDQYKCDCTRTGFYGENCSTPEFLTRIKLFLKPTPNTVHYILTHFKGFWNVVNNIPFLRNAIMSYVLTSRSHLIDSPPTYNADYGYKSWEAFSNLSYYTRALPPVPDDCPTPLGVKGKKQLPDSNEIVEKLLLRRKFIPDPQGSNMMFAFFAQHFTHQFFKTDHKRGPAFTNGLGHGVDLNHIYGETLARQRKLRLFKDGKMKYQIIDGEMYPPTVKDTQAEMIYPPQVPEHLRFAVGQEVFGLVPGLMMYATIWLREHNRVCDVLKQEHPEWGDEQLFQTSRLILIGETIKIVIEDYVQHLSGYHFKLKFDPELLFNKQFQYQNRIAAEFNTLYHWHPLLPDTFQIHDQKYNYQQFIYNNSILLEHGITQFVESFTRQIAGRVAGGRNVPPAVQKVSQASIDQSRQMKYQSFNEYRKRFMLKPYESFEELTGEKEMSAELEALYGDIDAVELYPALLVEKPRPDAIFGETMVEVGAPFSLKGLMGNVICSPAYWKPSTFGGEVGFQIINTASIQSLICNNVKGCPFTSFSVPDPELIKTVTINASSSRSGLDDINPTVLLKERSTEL

[2] = target: COX-1 (Homo sapiens, UniProt P23219); conditions: recombinant human PGH synthesis; Laneuvill et al. 1994; cited from earlier work
Sequence of COX-1 (Homo sapiens, UniProt P23219) (P23219 24-599): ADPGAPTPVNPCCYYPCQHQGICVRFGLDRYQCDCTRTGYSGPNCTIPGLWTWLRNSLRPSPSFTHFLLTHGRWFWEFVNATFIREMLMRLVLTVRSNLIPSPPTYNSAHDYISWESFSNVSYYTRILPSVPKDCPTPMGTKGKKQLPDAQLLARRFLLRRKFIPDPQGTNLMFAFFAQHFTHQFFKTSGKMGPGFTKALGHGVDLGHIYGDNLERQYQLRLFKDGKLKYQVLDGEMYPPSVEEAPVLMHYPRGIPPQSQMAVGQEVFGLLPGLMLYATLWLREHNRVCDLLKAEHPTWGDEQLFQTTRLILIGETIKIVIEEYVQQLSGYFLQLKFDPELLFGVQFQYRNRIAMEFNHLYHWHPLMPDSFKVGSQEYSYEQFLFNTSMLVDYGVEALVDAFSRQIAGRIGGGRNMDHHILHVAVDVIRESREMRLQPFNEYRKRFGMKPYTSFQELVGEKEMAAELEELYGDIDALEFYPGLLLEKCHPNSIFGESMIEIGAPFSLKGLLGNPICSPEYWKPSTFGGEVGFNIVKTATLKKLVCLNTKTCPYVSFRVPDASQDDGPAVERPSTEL

[3] = target: T2, COX-2 (Mus musculus, UniProt Q05769); conditions: cited from earlier work; for IC50: read-out: COX-2 IC50
T2 construct: endogenous in cells
T2 sequence (Q05769 18-604): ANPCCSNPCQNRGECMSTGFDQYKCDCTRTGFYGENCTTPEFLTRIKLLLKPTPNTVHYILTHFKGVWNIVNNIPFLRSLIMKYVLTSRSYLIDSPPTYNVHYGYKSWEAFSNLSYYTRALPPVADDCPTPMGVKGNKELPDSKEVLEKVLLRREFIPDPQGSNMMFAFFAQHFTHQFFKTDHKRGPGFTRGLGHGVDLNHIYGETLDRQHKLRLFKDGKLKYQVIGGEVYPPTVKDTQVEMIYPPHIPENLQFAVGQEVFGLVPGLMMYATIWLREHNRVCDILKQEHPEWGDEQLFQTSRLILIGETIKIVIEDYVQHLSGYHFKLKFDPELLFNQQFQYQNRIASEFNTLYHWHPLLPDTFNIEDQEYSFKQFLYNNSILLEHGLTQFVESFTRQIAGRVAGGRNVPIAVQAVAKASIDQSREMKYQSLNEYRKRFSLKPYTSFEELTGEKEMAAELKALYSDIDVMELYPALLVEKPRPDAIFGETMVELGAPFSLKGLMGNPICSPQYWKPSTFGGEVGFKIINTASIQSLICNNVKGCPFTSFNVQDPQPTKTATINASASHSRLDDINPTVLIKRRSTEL

[4] = test system: CD3+ T cells from MAIDS and control mice; experiment: TCR/CD3 stimulated proliferation of isolated T cells, [3H]-thymidine incorporation; type: cell-based, mouse; conditions: median, read-out: Inhibition of proliferation by 8-CPT-cAMP (IC50)
Protocol: TCR/CD3 stimulated T cell proliferation was assessed with isolated T cells from MAIDS mice (A) and uninfected control mice (B). The effect of increasing concentrations of cAMP agonist (8-CPT-cAMP) on TCR/CD3 stimulated proliferation of CD3+ T cells isolated from MAIDS (open circles, dotted line) and control mice (filled circles and solid line) was examined separately in the same experiments (C). Mean values of triplicate determinations±SD are shown. See Table 4 for summarised data (n=11). Note: Scaling differs in A and B, whereas in C the TCR/CD3 induced proliferation in the absence of cAMP agonist is normalized to 100% for both MAIDS and control T cells;
Activation was achieved by subsequent addition of monodisperse magnetic beads coated with sheep anti-mouse IgG (Dynal, cat. no. 110.02) at a cell:bead ratio of 1:1 followed by addition of anti-CD3 (clone 2C11) at a final dilution of 4 μg/ml for the experiments shown. […] 8-CPT-cAMP was from Sigma (St. Louis, Mo.) and Sp- and Rp-8-Br-cAMPS were from BioLog Life Science Company (Bremen, Germany) and were all dissolved to concentrations of 4 to 10 mM in PBS and concentrations calculated using the extinction coefficients given by the manufacturer.

[5] = target: T3, COX-1 (Bos taurus, UniProt O62664)
T3 construct: IC50 values for NSAID's in intact cell on COX-1; endogenous in cells; host or cells: bovine endothelial cells
T3 sequence (O62664 25-600): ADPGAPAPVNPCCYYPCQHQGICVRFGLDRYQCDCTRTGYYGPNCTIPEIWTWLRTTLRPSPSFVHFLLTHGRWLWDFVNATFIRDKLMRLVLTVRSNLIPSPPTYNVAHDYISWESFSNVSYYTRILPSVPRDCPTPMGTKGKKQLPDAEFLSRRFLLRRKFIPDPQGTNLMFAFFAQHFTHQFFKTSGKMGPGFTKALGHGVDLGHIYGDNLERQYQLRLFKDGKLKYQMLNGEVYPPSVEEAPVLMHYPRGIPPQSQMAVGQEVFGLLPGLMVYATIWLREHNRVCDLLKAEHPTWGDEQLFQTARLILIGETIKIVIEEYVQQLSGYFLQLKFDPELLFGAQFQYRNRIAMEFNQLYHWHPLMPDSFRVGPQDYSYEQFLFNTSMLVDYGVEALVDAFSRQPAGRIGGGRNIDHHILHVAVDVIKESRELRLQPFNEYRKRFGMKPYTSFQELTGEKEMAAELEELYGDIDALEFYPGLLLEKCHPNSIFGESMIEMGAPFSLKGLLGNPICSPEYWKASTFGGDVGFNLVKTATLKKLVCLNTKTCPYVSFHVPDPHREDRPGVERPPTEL

[6] = target: COX-1 (Cavia porcellus, UniProt H0V9X9); conditions: read-out: COX-1 IC50; guinea pig macrophage model; Engelhart et al. 1995; cited from earlier work
Sequence of COX-1 (Cavia porcellus, UniProt H0V9X9) (H0V9X9 entry or part of it): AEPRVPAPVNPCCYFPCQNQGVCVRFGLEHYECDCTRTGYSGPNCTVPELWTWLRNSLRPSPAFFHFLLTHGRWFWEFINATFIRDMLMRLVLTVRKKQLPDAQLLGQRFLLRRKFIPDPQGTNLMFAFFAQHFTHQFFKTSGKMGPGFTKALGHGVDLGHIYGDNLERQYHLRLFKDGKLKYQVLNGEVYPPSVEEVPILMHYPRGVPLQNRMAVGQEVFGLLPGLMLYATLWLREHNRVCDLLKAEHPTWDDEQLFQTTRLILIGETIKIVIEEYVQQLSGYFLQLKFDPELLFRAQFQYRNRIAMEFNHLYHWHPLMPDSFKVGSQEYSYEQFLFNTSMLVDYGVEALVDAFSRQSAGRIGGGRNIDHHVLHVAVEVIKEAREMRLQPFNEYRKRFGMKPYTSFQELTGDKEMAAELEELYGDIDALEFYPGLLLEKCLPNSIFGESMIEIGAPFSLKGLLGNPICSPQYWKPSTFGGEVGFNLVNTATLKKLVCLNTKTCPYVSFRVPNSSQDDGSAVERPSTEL

[7] = test system: lymph node mononuclear cells from MAIDS and control mice; experiment: anti-CD3 induced T cell proliferation in mixed unsorted lymph node cells, compound added in vitro; type: cell-based, mouse
Protocol: T cell activation was accomplished by cross-ligation of anti-CD3 (mAb 2C11; 4 μg/ml). […] Cells were cultured for 72 h during which [^3H] -thymidine was included for the last 4 h;
T cell activation was accomplished by cross-ligation of anti-CD3 (mAb 2C11; 4 μg/ml). […] Cells were cultured for 72 h during which [^3H ]-thymidine was included for the last 4 h;
The optimal concentration of antibody was titrated carefully in the initial setup and parallel experiments at several different dilutions of antibody was always performed. Proliferation was analyzed by incubating cells for 72 hours during which [^3H]-thymidine (0.4 μCi) was included for the last 4 hours and collected with a cell harvester (Skatron, Sterling, Va., USA) onto glass fiber filters. Incorporated precursor was counted in a scintillation analyzer (Tri-Carb, Packard, Meriden, Conn., USA). cAMP analogs, when used, were added 30 min prior to activation by addition of anti-CD3 antibodies.

[8] = test system: HIV infected patients; experiment: phase II clinical trial, indomethacin in vivo, T cell proliferation after activation; conditions: for T cell immune function, patients responding: 7 patients
Protocol: T cell activation was accomplished by cross-ligation of anti-CD3 (mAb SpVT3b). […] Bars show mean values±SD from triplicate determinations. Cells were cultured for 72 h during which [^3H]-thymidine was included for the last 16 h;
Mean values from triplicate determinations are plotted, connector lines show development of each patient;
Peripheral blood CD3+ T cells were purified by negative selection from buffycoats from normal healthy donors (Ullevaal University Hospital Blood Center, Oslo, Norway). Briefly, peripheral blood mononuclear cells were isolated by density gradient (Lymphoprep, NycoMed, Oslo, Norway) centrifugation followed by negative selection using monodisperse magnetic beads directly coated with antibodies to CD14 and CD19 and rat anti-mouse IgG beads coated with antibodies to CD56 and a magnet. […] All steps were performed at 4° C.
Proliferation assays were performed by incubation of 0.75×10^6 CD3+ T cells/ml in a 100 μl volume in flat-bottom 96-well microtiter plates. […] The optimal concentration of antibody was titrated carefully in the initial setup and parallel experiments at several different dilutions of antibody were always performed. Proliferation was analyzed by incubating cells for 72 hours during which [^3H]-thymidine was included for the last 16 hours. Cells were washed and harvested onto glass filters and subsequently analyzed by β-scintillation counting. CAMP analogs, when used, were added 30 min prior to activation by addition of anti-CD3 antibodies. 8-CPT-cAMP was from Sigma (St. Louis, Mo.).

[9] = recombinant human PGH synthesis, Laneuvill et al. 1994
[10] = intact cell, stimulated macrophages, Taketo 1998
[11] = intact cell, bovine endothelial cells; Taketo 1998; read-out: COX-1 IC50; cited from earlier work
[12] = read-out: COX-1 IC50; intact cell, bovine endothelial cells; Taketo 1998; cited from earlier work

SMILES: Cc1ccc(Cl)c(Nc2ccccc2C(=O)O)c1Cl [Meclofenemate]
- COX-2 selectivity COX-1/COX-2 [1]: 0.15
- IC50 [1, 9]: 9.7 µM
- IC50 [2]: 1.5 µM

SMILES: COc1ccc2cc([C@H](C)C(=O)O)ccc2c1 [Naproxen]
- IC50 [3]: 1.3 µM

SMILES: Nc1ncnc2c1nc(Sc1ccc(Cl)cc1)n2[C@@H]1O[C@@H]2COP(=O)(O)O[C@H]2[C@H]1O [8-CPT-cAMP]
- IC50 ([4]; MAIDS mice, n = 5): 0.22 µM
- IC50 ([4]; control mice, n = 4): 0.4 µM

SMILES: O=C([O-])c1ccccc1O.[Na+] [Sodium salicylate]
- IC50 [3, 10]: 100 µM
- COX-2 selectivity COX-1/COX-2 ([3]; ratio of IC50, intact cells): 0.35
- IC50 [5, 11]: 35 µM

SMILES: O=C(c1ccccc1)c1ccc2n1CCC2C(=O)O (stereo not drawn) [Ketorolac tromethamine]
- COX-2 selectivity COX-1/COX-2 [1]: 0.5
- IC50 [2]: 31.5 µM

SMILES: CN1C(C(=O)Nc2ccccn2)=C(O)c2ccccc2S1(=O)=O [Piroxicam]
- IC50 [6]: 0.00527 µM

SMILES: Cc1c(Cl)cccc1Nc1ccccc1C(=O)O [Tolfenamic acid]
- IC50 [3, 10]: 0.005 µM
- COX-2 selectivity COX-1/COX-2 ([3]; ratio of IC50, intact cells): 0.06
- IC50 [5, 11]: 0.0003 µM

SMILES: COc1ccc2c(c1)c(CC(=O)O)c(C)n2C(=O)c1ccc(Cl)cc1 [Indomethacin]
- T cell proliferation, Indomethacin ([7]; MAIDS mice, median, n = 7, no anti-CD3): 1412
- T cell proliferation, Indomethacin/Anti-CD3 ([7]; MAIDS mice, median, n = 8, anti-CD3 plus indomethacin): 15601**
- effect on anti-CD3 induced proliferation ([7]; control cultures of uninfected mice, indomethacin): did not alter proliferation
- T cell proliferation, Indomethacin/Anti-CD3 ([7]; individual MAIDS mice, anti-CD3 plus indomethacin 50 ng/ml): 19624 and 31830 and 42244 and 9381 and 47926 and 1345 and 11579 and 8545
- T cell proliferation, Indomethacin ([7]; individual MAIDS mice, no anti-CD3, indomethacin 50 ng/ml): 2363 and 7316 and 1412 and 1129 and 265 and 335 and 4317
- effect on anti-CD3 induced proliferation ([7]; mixed lymph node cells of five MAIDS-infected mice, 72 h): strongly increased the proliferation of cells from five MAIDS-infected mice to levels comparable to that of control mice
- T cell immune function, patients responding ([8]; after 14 days of treatment, 25 mg three times a day): two of seven patients had clearly elevated T cell immune function
- T cell immune function, patients responding ([8]; two weeks after discontinuation, versus day 0): five of seven patients had elevated immune responsiveness
- adverse events ([8]; HIV patients, 50 mg 3 times a day): epigastrial pain and dyspepsia
- increase of T cell responses after in vivo treatment ([8]; patient 3, 25 mg three times a day perorally, 14 days, persisted to day 28): approximately 2.5 fold
- T cell immune function after in vivo treatment ([8]; patients 1 and 2, 25 mg three times a day perorally, 14 days): did not increase their immune function
- IC50 [6]: 0.00021 µM

SMILES: CC/C=C\C/C=C\C/C=C\C/C=C\C/C=C\C/C=C\CCC(=O)O [DHA (22:6)]
- COX-2 selectivity COX-1/COX-2 [1]: 0.6
- IC50 [1, 9]: 41 µM
- IC50 [2]: 25.6 µM

SMILES: O=C(O)c1ccccc1O [Salicyclic acid]
- IC50 [1, 9]: > 1000 µM
- IC50 [2]: > 1000 µM

SMILES: CC(C(=O)O)c1ccc(-c2ccccc2)c(F)c1 (stereo not drawn) [Flubiprofen]
- IC50 [5, 11]: 0.02 µM

SMILES: COc1ccc2cc(CC(=O)O)ccc2c1 [6-MNA]
- COX-2 selectivity COX-1/COX-2 [1]: 0.7
- IC50 [1, 9]: 93.5 µM
- IC50 [2]: 64 µM

SMILES: CN1OCC/C(=C\c2cc(C(C)(C)C)c(O)c(C(C)(C)C)c2)C1=O [BF 389]
- IC50 [3, 10]: 0.03 µM
- COX-2 selectivity COX-1/COX-2 ([3]; ratio of IC50, intact cells): 5
- IC50 [5, 11]: 0.15 µM

SMILES: NC(=O)N1C(=O)/C(=C(\O)c2cccs2)c2cc(Cl)ccc21 [Teridep]
- IC50 [6]: 0.393 µM

SMILES: O=C(O)Cc1ccccc1Nc1c(Cl)cccc1Cl [Diclofenac]
- IC50 [6]: 0.000855 µM

SMILES: CC(C(=O)O)c1ccc2c(c1)[nH]c1ccc(Cl)cc12 (stereo not drawn) [Carprofen]
- COX-2 selectivity COX-1/COX-2 [3]: 1
- IC50 [3]: 3 µM
- IC50 [5, 12]: 3 µM

SMILES: NC1=NN(c2cccc(C(F)(F)F)c2)CC1 [BW 755C]
- IC50 [5, 12]: 0.65 µM

SMILES: CCc1cccc2c3c([nH]c12)C(CC)(CC(=O)O)OCC3 (stereo not drawn) [Etodolac]
- IC50 [1]: 60 µM

SMILES: CC(=O)Nc1ccc(O)cc1 [Acetaminophen]
- IC50 [5, 11]: 2.7 µM

SMILES: CCCCC1C(=O)N(c2ccccc2)N(c2ccccc2)C1=O [Phenylbutazone]
- IC50 [1, 9]: > 100 µM
